Entries after “also recorded” stand apart in the source; their conditions may differ.
Target: T1, SERCA2a (Mus musculus, UniProt O55143)
T1 construct: host or cells: HL-1 cardiac cells
Experiment: Caffeine-induced Ca2+ release assay on HL-1 cells
Assay type: cell-based
Set-up: key to SERCA2a HL-1 effect class: +++: a strong effect, comparable to or greater than that of a known compounds at a given concentration (25 µM in RyR2 R-CEPIA1er assay, 10 µM in caffeine assay and on microsomal membrane vesicles); ++: moderate effect; +: observable effect; -: no effect
Settings: for SERCA2a HL-1 effect class: 10 µM in caffeine assay; for effect in caffeine-induced Ca^2+ release assay, in words: HL-1 cells incubated 2 h with compound; for effect in caffeine-induced Ca^2+ release assay, in words / EC50: 10 mM caffeine; for EC50: caffeine-induced Ca2+ release, range after the semicolon is not explained
Description: HL-1 cardiac cells (SCC065, Merck KGaA, Darmstadt, Germany) were cultivated in Claycomb's Medium (51800C, Merck KGaA, Darmstadt, Germany), supplemented with Glutamax, 10% fetal bovine serum, 0.9% Penicillin/Streptomycin and 0.1 mM Noradrenaline (Merck KGaA, Darmstadt, Germany) on fibronectin/gelatin (Merck KGaA, Darmstadt, Germany) coated culture bottles or plates two days before plating.
HL-1 cardiac cells (50000 per well) were cultivated for 24 h in black-walled, clear-bottom 96-well micro-plates (Corning, Amsterdam, The Netherlands) covered with fibronectin/gelatin (Merck KGaA, Darmstadt, Germany) in a humidified incubator at 37 °C and 5% CO2.
Changes in Ca^2+ concentration were measured on a multiwell plate reader TECAN Spark 20M using FLIPR 6 Calcium Assay Kit from Molecular Devices (Molecular Devices LLC, München, Germany) at 37 °C. The 1000 × stock solutions of the test compounds were prepared in DMSO. 100 µl solution of test compound in Tyrode's solution containing FLIPR Calcium 6 dye was incubated for 2 hours at 37°C and 5% COz in a humidified incubator. The time courses were recorded in each well. Fluorescence was evoked at 485 nm excitation wavelength and read out in a bottom-read mode at 525 nm. Data were recorded every 2 s, exposure - 20 flashes, excitation bandwidth - 10 nm, emission bandwidth - 15 nm. To initiate Ca^2+ influx, 25 µl of 50 mM caffeine solution in Tyrode's solution containing 2 mM CaCl2 was injected in each well (speed 100 µl/s) at 10 s time point, resulting in 10 mM final concentration in the well. The differences between the caffeine induced peak minus basal fluorescence, ΔFCaff, were taken for the analysis. The Tyrode's solution + 0.1 v/v% DMSO was used as a control. The dose response curves were calculated using the software package GraphPad Prism version 8.3.1. All data are presented as mean ± S.D. from 8 independent experiments. Y=Bottom + (Top-Bottom)/(1+10^((LogEC50-X)*HillSlope)) was used where HillSlope describes the steepness of the curve, Top and Bottom are plateaus in the units of the Y axis.
The SERCA2a activity of the compounds was confirmed in two orthogonal biochemical assays: caffeine-induced Ca^2+ release assay and nicotinamide adenine dinucleotide (NADH) assay on microsomal membrane vesicles from mouse heart ventricles (mouse SER) and HEK-293T cells (HEK-293 ER). The effect of caffeine-induced Ca^2+ release in HL-1 cells, immortalized mouse cardiomyocytes, treated with the cytosolic Ca^2+ indicator FLIPR Calcium 6 (Molecular Devices) was investigated.
When caffeine binds to the RyR channel, it interacts with specific amino acids of the protein, and this interaction causes conformational changes in the protein's structure [A. des Georges, O. B. Clarke, R. Zalk, Q. Yuan, K. J. Condon, R. A. Grassucci, W. A. Hendrickson, A. R. Marks, J. Frank, Structural Basis for Gating and Activation of RyR1. Cell 2016, 167, 145 - 157.e17]. This opens the RyR2 channel pore, enabling the mass release of calcium ions from the SER Ca^2+ store.

T1 sequence (O55143 1-998 isoform O55143-2): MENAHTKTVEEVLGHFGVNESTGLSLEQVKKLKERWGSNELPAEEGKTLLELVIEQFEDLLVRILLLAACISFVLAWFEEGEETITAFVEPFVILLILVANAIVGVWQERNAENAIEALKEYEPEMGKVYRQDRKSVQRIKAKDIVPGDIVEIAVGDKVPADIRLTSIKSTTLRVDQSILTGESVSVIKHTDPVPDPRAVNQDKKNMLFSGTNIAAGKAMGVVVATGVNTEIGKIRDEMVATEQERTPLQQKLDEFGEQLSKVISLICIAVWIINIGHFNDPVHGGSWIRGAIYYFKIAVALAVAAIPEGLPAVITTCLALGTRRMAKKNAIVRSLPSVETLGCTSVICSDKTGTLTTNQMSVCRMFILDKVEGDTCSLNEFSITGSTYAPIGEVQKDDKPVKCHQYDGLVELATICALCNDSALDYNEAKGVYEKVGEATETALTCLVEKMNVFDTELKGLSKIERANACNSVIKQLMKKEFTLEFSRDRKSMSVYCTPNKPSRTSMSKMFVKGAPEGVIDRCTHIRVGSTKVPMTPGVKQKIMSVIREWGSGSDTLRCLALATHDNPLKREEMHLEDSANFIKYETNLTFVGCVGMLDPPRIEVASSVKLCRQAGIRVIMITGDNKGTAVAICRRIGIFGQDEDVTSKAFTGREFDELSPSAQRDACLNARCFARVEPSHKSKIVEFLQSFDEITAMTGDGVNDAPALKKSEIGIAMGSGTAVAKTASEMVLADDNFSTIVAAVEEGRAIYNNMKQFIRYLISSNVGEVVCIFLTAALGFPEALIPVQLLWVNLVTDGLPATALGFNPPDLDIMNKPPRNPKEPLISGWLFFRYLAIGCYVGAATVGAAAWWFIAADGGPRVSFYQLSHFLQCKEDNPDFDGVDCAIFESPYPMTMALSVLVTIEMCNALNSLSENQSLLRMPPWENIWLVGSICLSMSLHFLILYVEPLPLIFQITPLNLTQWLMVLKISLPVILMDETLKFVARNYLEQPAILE

| Structure (SMILES) | SERCA2a HL-1 effect class | effect in caffeine-induced Ca^2+ release assay, in words | EC50 |
| --- | --- | --- | --- |
| COc1ccc2c(c1)CN(Cc1ccc(C(=O)O)cc1)CCS2 [ARM210, reference compound] | + | clear concentration-dependent effect |  |
| COc1ccc2c(c1)CN(CCCCNCCCCC1(O)CC1)CCS2 [Compound 13a, 1-(4-((4-(7-Methoxy-2,3-dihydrobenzo[1,4-f]-thiazepin-4(5H)-yl)butyl)amino)butyl)cyclopropan-1-ol] | + | most potent | 2.2 µM |
| COc1ccc(OCCCNCCCCC2(O)CC2)cc1 [Compound 13b, 1-(4-((3-(4-methoxyphenoxy)propyl)amino)butyl)cyclopropan-1-ol] | ++ |  | 8.6 µM |
| COc1ccc(SCCCNCCCCC2(O)CC2)cc1 [Compound 13c, 1-(4-((3-((4-Methoxyphenyl)thio)propyl)amino)butyl)cyclopropan-1-ol] | ++ |  | 7.6 µM |
| COc1ccc2c(c1)CN(CCCCC1(O)CC1)CCS2 [Compound 13d, 1-(4-(7-methoxy-2,3-dihydrobenzo[1,4-f]thiazepin-4(5H)-yl)butyl)cyclopropan-1-ol] | + | least efficacious; also recorded: no saturation effect at concentrations up to 50 µM; also recorded: slight |  |
| COc1ccc2c(c1)CN(CCCCN(CCCCC1(O)CC1)CCCCC1(O)CC1)CCS2 [Compound 14a, 1,1'-(((4-(7-Methoxy-2,3-dihydrobenzo[1,4-f]thiazepin-4(5H)-yl)butyl)azanediyl)bis(butane-4,1-diyl))bis(cyclopropan-1-ol)] | ++ |  | 9.2 µM |
| COc1ccc(SCCCN(CCCCC2(O)CC2)CCCCC2(O)CC2)cc1 [Compound 14c, 1,1'-(((3-((4-Methoxyphenyl)thio)propyl)azanediyl)bis(butane-4,1-diyl))bis(cyclopropan-1-ol)] | +++ | most efficacious | 10.9 µM |
| COc1ccc2c(c1)CN(C(=O)C(=O)O)CCS2 [Compound S36, reference compound] | - | no concentration dependent effect |  |
